# pIC50: −log10 of the molar value. Read-outs that look alike come from different tables or passages of the source.
# How the values were obtained:
# Assay type in all cases: cell-based, human
# [1] = test system: p-ERK in AGS cells (KRAS G12D mutation); assay: Cell p-ERK assay (HTRF, Advance ERK phospho-T202/Y204 kit); conditions: AGS cells, 3 hours incubation with compound, HTRF, read-out: AGS p-ERK IC50
# Method in brief: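 AGS cells (endogenous KRAS G12D) seeded at ~20000 cells/well overnight, then treated 3 h with 3.16-fold compound dilutions, 0.1% DMSO final. Lysates assayed for phospho-T202/Y204 ERK by HTRF after 4 h antibody incubation; inhibition vs DMSO and blank, IC50 by four-parameter fit.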
# [2] = test system: AGS cells (KRAS G12D); assay: Cell proliferation inhibition assay, 3D, CellTiter-Glo 3D, AGS; conditions: AGS 3D sphere model, 5 days incubation
# Method in brief: (§1)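 Spheroids (800 AsPC-1 or 400 AGS cells/well; RPMI-1640 or F-12K with 10% FBS) formed overnight, then were dosed on day 2 with a 3.16-fold series at 0.1% DMSO. After 5 days, viability was read by CellTiter-Glo 3D luminescence, and IC50 came from four-parameter fits of inhibition versus DMSO control and medium blank.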
# [3] = test system: AsPC-1 cells (KRAS G12D mutation); assay: Cell proliferation inhibition assay, 3D, CellTiter-Glo 3D, AsPC-1; conditions: AsPC-1 3D sphere model, 5 days incubation
# Method in brief: as §1
SMILES,pIC50 [1],pIC50 [2],pIC50 [3],pIC50 ([1]; Homo sapiens),"pIC50 ([2]; Homo sapiens, 120 h)","pIC50 ([3]; Homo sapiens, ASPC1, 120 h)"
"C#Cc1cccc2cc(N)cc(-c3nc4c5c(nc(OC[C@@H]6C[C@@H](F)CN6C)nc5c3F)N3C[C@H]5CC[C@H](N5)[C@H]3[C@H](C)O4)c12 [Example Z732, 5-ethynyl-4-((5S,5aS,6S,9R)-1-fluoro-12-(((28,4R)-4-fluoro-1-methylpyrrolidin-2-yl)methoxy)-5-methyl-5a,6,7,8,9,10-hexahydro-5H-4-oxa-3,10a, 11, 13, 14-pentaaza-6,9-methanonaphtho[1,8-ab]heptalene-2-yl) naphthalen-2-amine]",8.54,7.97,7.93,,,
"C#Cc1cccc2cc(N)cc(-c3nc4c5c(nc(OC[C@@H]6CCCN6CC(F)F)nc5c3F)N3C[C@H]5CC[C@H](N5)[C@H]3[C@H](C)O4)c12 [Example Z733, 4-((5S,5aS,6S,9R)-12-(((S)-1-(2,2-difluoroethyl)pyrrolidin-2-yl)methoxy)-1-fluoro-5-methyl-5a,6,7,8,9,10-hexahydro-5H-4-oxa-3,10a,11,13,14-pentaaza-6,9-methanonaphtho[1,8-ab]heptalen-2-yl)-5-ethynylnaphthalen-2-amine]",,,,7.12,6.53,6.57
"C#Cc1cccc2cc(N)cc(-c3nc4c5c(nc(OC[C@]67CCCN6CC(F)(F)C7)nc5c3F)N3C[C@H]5CC[C@H](N5)[C@H]3[C@H](C)O4)c12 [Example Z734, 4-((5S,5aS,6S,9R)-12-(((R)-2,2-difluorotetrahydro-1H-pyrrolizin-7a (5H)-yl)methoxy)-1-fluoro-5-methyl-5a,6,7,8,9,10-hexahydro-5H-4-oxa-3,10a, 11,13, 14-pentaaza-6,9-methanonaphtho[1,8-ab]heptalene-2-yl)-5-ethynylnaphthalen-2-amine]",,,,8.47,7.77,7.92
